From patent US9649324B2, “Use of tylvalosin as antiviral agent” (ECO ANIMAL HEALTH LIMITED, priority 2006, dated 2017)

Key:
[1] = previous study (Tsuchiya et al., 1981); cited from earlier work
[2] = orally administered, in vivo (Okamoto et al., 1981); cited from earlier work
[3] = tested on: human Udorn strain of influenza; assay: Influenza infection of MDCK cells, immunofluorescence (Example 4), strain Udorn; format: cell-based; conditions: 1 μg/ml, 4 h pretreatment, moi 10, fixed 4 h post infection
[4] = cited from earlier work
[5] = tested on: PR8 strain of influenza A virus; assay: Influenza infection of MDCK cells, immunofluorescence (Example 4), strain PR8; format: cell-based, human influenza; conditions: 1 μg/ml, 4 h pretreatment, moi 10, fixed 4 h post infection
PRRSV strain, VR2385 = assay: Efficacy of tylvalosin in feed for the control of PRRSV in challenged pigs (Example 14); format: in vivo, pig; conditions: for Mean maximum respiratory score: score 0-6
influenza strain Udorn = assay: Influenza virus time course in MDCK cells, immunofluorescence and plaque assay (Example 12); format: cell-based
[6] = tested on: equine arteritis virus (EAV); assay: Effect on equine arteritis virus infection (Example 6); format: cell-based
Procedure: Experiments were carried out to determine whether tylvalosin has an effect on equine arteritis virus (EAV).

[7] = tested on: chicken white blood cells; assay: Intracellular accumulation in chicken white blood cells; format: in vitro ADME; conditions: chicken white blood cells
Procedure: (§1) Pig blood was collected in Heparin-coated BD vacutainers (6). 20 mL of blood and 30 mL of phosphate buffered saline (PBS) were mixed in a 50 mL conical centrifuge tube. This was repeated in order to obtain 3 such tubes. The mixtures were centrifuged for 10 min at 2050×g. The white blood cells, together with some red blood cells below, were harvested into a 50 mL conical centrifuge tube. PBS was added to about 50 mL. A 63% solution of Percoll was made as follows: 6.3 mL Percoll (Sigma), 1.0 mL 1.5 M NaCl, 2.7 mL H2O. 10 mL of 63% Percoll was added to each of two 50 mL conical centrifuge tubes. 25 mL of the resuspended white blood cells were carefully layered on top of the each of the Percoll solutions. A sharp interface was produced. The material was centrifuged at 3000×g for 10 min. […] The white blood cells were harvested in PBS (50 mL) and centrifuged at 500×g for 10 min. The cell pellet was resuspended in medium (Glasgow minimum essential medium containing penicillin and streptomycin). A viable cell count was made using trypan blue. The same method used for isolation of pig WBCs was used for the chicken WBCs, with the exception that heparin (100 I.U./mL) was prepared and mixed with an equal volume of chicken whole blood.
All tubes were placed on a rotary mixing machine, at 37° C. Supernatant and cell samples were harvested at the times described in the figure legends. Duplicate samples were used for each antibiotic for each time point.
(§2) All the supernatant and cell samples were transported frozen (at approximately −20° C.) to York Bioanalytical Solutions (York, England) for analysis. Briefly, 0.25 g of buffer (RPMI medium containing 10% FCS) was weighed into a polypropylene tube. A 50 μL volume of the appropriate working solution was added to the quality control (QC) samples. Methanol (50 μL) was added to each blank sample used for preparation of calibration standards, recovery samples and reagent blanks. A 2.5 mL volume of 0.1 M phosphate buffer was added to each sample, vortex mixed for approximately 1 min and then centrifuged at 3220×g for 10 min at 4° C.
(§3) For the liquid-liquid clean-up phase, an aliquot (100 μL) of the supernatant was transferred to a polypropylene tube. The pH was adjusted to pH 8-8.5 by the addition of 0.1 M NaOH, and vortex mixed. Ethyl acetate (5 mL) was added and after capping, the whole mixture was shaken for 10 min and then centrifuged at 3220×g for 10 min at 4° C.
(§4) Ammonium acetate (20 mM; pH native)—formic acid, 1000:3, v/v (100 μL) was added to each well in a 2 mL polypropylene collection plate. An aliquot of the ethyl acetate mixture (100 μL) was transferred to the polypropylene collection plate and evaporated under nitrogen (40° C.) until the ethyl acetate was fully evaporated whilst the ammonium acetate remained. Methanol (100 μL) was added to each well, excluding the calibration standards.
(§5) To each well containing a calibration standard, 100 μL of the appropriate calibration working solution was added. Samples were then vortex mixed for at least 10 min and submitted for liquid chromatography with tandem mass spectrometric analysis. The method stated was applicable to the samples of media (and the calibration standards and quality control samples).
(§6) For the cells, the sample tubes were weighed, and 100 μL of acetonitrile was added. The samples were vortex mixed for 10 sec, then centrifuged at 10285×g at 4° C. for 5 min. The sample was transferred to a polypropylene tube. The original sample tube was washed with 0.1 M phosphate buffer (1 mL). This was transferred to the polypropylene tube. A second wash of 1 mL was made, then a final wash of 0.5 mL. The polypropylene tube was now at the same stage as the end of the liquid extraction, but with the cells present rather than media. This was then taken through the sample preparation as described above. […]

pig white blood cells = assay: Intracellular accumulation in pig white blood cells; format: in vitro ADME
Procedure: as §1
Cells were incubated with 10 mg/mL of each antibiotic. All tubes were placed on a rotary mixing machine, at 37° C. Supernatant and cell samples were harvested at the times described in the figure legends. Duplicate samples were used for each antibiotic for each time point.
as §2, §3, §4, §5, §6

[8] = Group 1, 100 ppm in feed, Trial Day 17
[9] = Group 1, 100 ppm in feed, Trial Day 28
[10] = Group 2, 200 ppm in feed, Trial Day 17
[11] = Group 2, 200 ppm in feed, Trial Day 28
[12] = Group 3, 600 ppm in feed, Trial Day 17
[13] = Group 3, 600 ppm in feed, Trial Day 28

## CCC1OC(=O)CC(OC(C)=O)C(C)C(OC2OC(C)C(OC3CC(C)(O)C(OC(=O)CC(C)C)C(C)O3)C(N(C)C)C2O)C(CC=O)CC(C)C(=O)C=CC(C)=CC1COC1OC(C)C(O)C(OC)C1OC (stereo not shown) [tylvalosin, 3-O acetyl-4″-O-isovaleryltylosin]
[1]
  lipophilicity: more lipophilic than either tylosin or 3AT
[2]
  blood levels: higher blood levels than tylosin
[3]
  inhibition of infection of MDCK cells: 76%
[4]
  pKa: 7.6
[5]
  inhibition of infection of MDCK cells: completely inhibited
PRRSV strain, VR2385; 100, 200, 600 ppm in feed versus non-treated controls
  severity of macroscopic pneumonia: No differences
PRRSV strain, VR2385; Group 1, 100 ppm in feed
  Mean average rectal temperature: 103.6 ± 0.1
  Mean maximum rectal temperature: 104.5 ± 0.2 A
  Mean maximum respiratory score: 0.5 ± 0.1 A*
PRRSV strain, VR2385; Group 1, 100 ppm in feed, Necropsy 1 (Trial Day 17, 10 days post infection)
  Mean microscopic PRRSV lung lesion score: 0.2 ± 0.2 A
PRRSV strain, VR2385; Group 1, 100 ppm in feed, Necropsy 2 (Trial Day 28, 21 days post infection)
  Mean microscopic PRRSV lung lesion score: 2.1 ± 0.4
PRRSV strain, VR2385; Group 1, 100 ppm in feed, Trial Day 7
  Average daily gain: 1.57 ± .09 lbs
PRRSV strain, VR2385; Group 1, 100 ppm in feed, Trial Day 10
  Mean real-time RT-PCR (PRRSV RNA copy numbers in serum): 15,289.88 B, C
PRRSV strain, VR2385; Group 1, 100 ppm in feed, Trial Day 14
  Average daily gain: 1.5 ± .05 lbs
PRRSV strain, VR2385; [8]
  Average daily gain: 1.59 ± .05 A lbs
  Mean real-time RT-PCR (PRRSV RNA copy numbers in serum): 95,315.72
PRRSV strain, VR2385; Group 1, 100 ppm in feed, Trial Day 21
  Mean real-time RT-PCR (PRRSV RNA copy numbers in serum): 36,451.13
PRRSV strain, VR2385; [9]
  Average daily gain: 1.42 ± .05 lbs
  Mean real-time RT-PCR (PRRSV RNA copy numbers in serum): 5,301.63
PRRSV strain, VR2385; Group 2, 200 ppm in feed
  Mean average rectal temperature: 103.7 ± 0.1
  Mean maximum rectal temperature: 104.7 ± 0.2 A
  Mean maximum respiratory score: 0.6 ± 0.2 A
PRRSV strain, VR2385; Group 2, 200 ppm in feed, Necropsy 1 (Trial Day 17, 10 days post infection)
  Mean microscopic PRRSV lung lesion score: 2.0 ± 0.3 B
PRRSV strain, VR2385; Group 2, 200 ppm in feed, Necropsy 2 (Trial Day 28, 21 days post infection)
  Mean microscopic PRRSV lung lesion score: 1.9 ± 0.3
PRRSV strain, VR2385; Group 2, 200 ppm in feed, Trial Day 7
  Average daily gain: 1.52 ± .10 lbs
PRRSV strain, VR2385; Group 2, 200 ppm in feed, Trial Day 10
  Mean real-time RT-PCR (PRRSV RNA copy numbers in serum): 19,336.8 C
PRRSV strain, VR2385; Group 2, 200 ppm in feed, Trial Day 14
  Average daily gain: 1.45 ± .06 lbs
PRRSV strain, VR2385; [10]
  Average daily gain: 1.59 ± .07 A, B lbs
  Mean real-time RT-PCR (PRRSV RNA copy numbers in serum): 78,804.81
PRRSV strain, VR2385; Group 2, 200 ppm in feed, Trial Day 21
  Mean real-time RT-PCR (PRRSV RNA copy numbers in serum): 18,724.88
PRRSV strain, VR2385; [11]
  Average daily gain: 1.53 ± .07 lbs
  Mean real-time RT-PCR (PRRSV RNA copy numbers in serum): 892.36
PRRSV strain, VR2385; Group 3, 600 ppm in feed
  Mean average rectal temperature: 103.8 ± 0.1
  Mean maximum rectal temperature: 105.8 ± 0.3 B
  Mean maximum respiratory score: 1.8 ± 0.3 B
PRRSV strain, VR2385; Group 3, 600 ppm in feed, Necropsy 1 (Trial Day 17, 10 days post infection)
  Mean microscopic PRRSV lung lesion score: 2.0 ± 0.3 B
PRRSV strain, VR2385; Group 3, 600 ppm in feed, Necropsy 2 (Trial Day 28, 21 days post infection)
  Mean microscopic PRRSV lung lesion score: 1.5 ± 0.3
PRRSV strain, VR2385; Group 3, 600 ppm in feed, Trial Day 7
  Average daily gain: 1.83 + .16 lbs
PRRSV strain, VR2385; Group 3, 600 ppm in feed, Trial Day 10
  Mean real-time RT-PCR (PRRSV RNA copy numbers in serum): 54,487.19 A, B
PRRSV strain, VR2385; Group 3, 600 ppm in feed, Trial Day 14
  Average daily gain: 1.47 ± .06 lbs
PRRSV strain, VR2385; [12]
  Average daily gain: 1.44 ± .04 A, B lbs
  Mean real-time RT-PCR (PRRSV RNA copy numbers in serum): 146,655.4
PRRSV strain, VR2385; Group 3, 600 ppm in feed, Trial Day 21
  Mean real-time RT-PCR (PRRSV RNA copy numbers in serum): 30,260.69
PRRSV strain, VR2385; [13]
  Average daily gain: 1.47 ± .06 lbs
  Mean real-time RT-PCR (PRRSV RNA copy numbers in serum): 1,292.31
PRRSV strain, VR2385; lower doses (in feed)
  clinical disease and viremia associated with PRRSV infection: appears to reduce clinical disease and viremia
Influenza strain Udorn
  influenza strain Udorn infection over the 24 hour period (immunofluorescence and plaque assay): inhibited
[6]
  EAV infection: not blocked
[7]; 10 μg/mL, 15 min
  average intracellular concentration: 89.8 μg/mg cells
[7]; 10 μg/mL, 60 min
  intracellular concentration: 122.9 μg/mg cells
[7]; 60 min
  intracellular:extracellular ratio: 19 fold
Pig white blood cells; 10 min
  average intracellular concentration: 57.4 μg/mg cells
  average intracellular:extracellular ratio (IC:EC): 8.68
Pig white blood cells; 10 min, listed as Tylvalosin
  average intracellular:extracellular ratio (IC:EC): 9
Pig white blood cells; 20 min
  intracellular concentration: 61.45 μg/mg cells
